In ChEMBL document CHEMBL3774309, “SAR Exploration Guided by LE and Fsp(3): Discovery of a Selective and Orally Efficacious RORγ Inhibitor” (ACS Med Chem Lett, 2016):

How the values were obtained:
[1] = target: T1, Nuclear receptor ROR-gamma (Mus musculus, UniProt P51450); assay: Inhibition of mouse RORgamma ligand binding domain (Isoleucine 251 to Lysine 516) expressed in CHOK1 cells incubated for 2 days by Gal4 luciferase reporter gene assay; type: cell-based, CHO-K1
T1 sequence (P51450 whole entry): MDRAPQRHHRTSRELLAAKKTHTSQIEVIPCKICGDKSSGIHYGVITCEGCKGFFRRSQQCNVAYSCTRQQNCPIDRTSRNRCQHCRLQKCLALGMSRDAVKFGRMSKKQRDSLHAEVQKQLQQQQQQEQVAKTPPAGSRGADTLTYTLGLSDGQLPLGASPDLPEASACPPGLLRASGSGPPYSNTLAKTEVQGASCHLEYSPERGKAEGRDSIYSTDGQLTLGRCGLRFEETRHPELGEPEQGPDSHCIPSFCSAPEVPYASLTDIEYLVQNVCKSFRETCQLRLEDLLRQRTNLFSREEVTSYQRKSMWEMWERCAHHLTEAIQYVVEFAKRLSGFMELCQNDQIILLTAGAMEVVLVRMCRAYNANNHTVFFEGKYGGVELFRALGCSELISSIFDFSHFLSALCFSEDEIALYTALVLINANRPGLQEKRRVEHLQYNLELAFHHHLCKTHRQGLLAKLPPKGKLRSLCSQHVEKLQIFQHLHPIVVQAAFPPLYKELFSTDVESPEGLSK

[2] = target: T2, Nuclear receptor ROR-gamma (Homo sapiens, UniProt P51449)
T2 sequence (P51449 whole entry): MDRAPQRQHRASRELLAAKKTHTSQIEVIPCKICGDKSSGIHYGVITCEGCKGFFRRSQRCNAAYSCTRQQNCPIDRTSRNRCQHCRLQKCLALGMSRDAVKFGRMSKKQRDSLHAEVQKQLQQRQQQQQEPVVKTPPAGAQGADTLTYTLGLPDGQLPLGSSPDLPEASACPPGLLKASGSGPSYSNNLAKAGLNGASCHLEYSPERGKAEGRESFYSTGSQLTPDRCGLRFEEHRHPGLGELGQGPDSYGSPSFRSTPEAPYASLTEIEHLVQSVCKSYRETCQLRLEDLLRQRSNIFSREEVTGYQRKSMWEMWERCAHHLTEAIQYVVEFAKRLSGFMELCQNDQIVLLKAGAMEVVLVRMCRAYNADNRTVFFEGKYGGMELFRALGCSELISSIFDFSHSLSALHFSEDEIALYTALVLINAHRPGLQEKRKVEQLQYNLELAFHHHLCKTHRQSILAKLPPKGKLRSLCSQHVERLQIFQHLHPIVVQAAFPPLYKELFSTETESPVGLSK
Description: Inhibition of human RORgamma ligand binding domain (Serine 253 to Lysine 518 residues) expressed in CHOK1 cells incubated for 2 days by Gal4 luciferase reporter gene assay

[3] = Metabolic stability in liver S9 fraction (unknown origin) assessed as parent compound remaining incubated for 10 mins; type: ADME, subcellular; details: human, read-out: Stability
[4] = Metabolic stability in liver S9 fraction (unknown origin) assessed as parent compound remaining incubated for 60 mins; type: ADME, subcellular; details: human, read-out: Stability
[5] = target: Cytochrome P450 3A4 (Homo sapiens, UniProt P08684); assay: Inhibition of CYP3A4 in human liver microsomes using midazolam as substrate preincubated with substrate for 5 mins followed by NADPH addition measured after 20 mins by HPLC analysis; type: ADME
Sequence of Cytochrome P450 3A4 (P08684 whole entry): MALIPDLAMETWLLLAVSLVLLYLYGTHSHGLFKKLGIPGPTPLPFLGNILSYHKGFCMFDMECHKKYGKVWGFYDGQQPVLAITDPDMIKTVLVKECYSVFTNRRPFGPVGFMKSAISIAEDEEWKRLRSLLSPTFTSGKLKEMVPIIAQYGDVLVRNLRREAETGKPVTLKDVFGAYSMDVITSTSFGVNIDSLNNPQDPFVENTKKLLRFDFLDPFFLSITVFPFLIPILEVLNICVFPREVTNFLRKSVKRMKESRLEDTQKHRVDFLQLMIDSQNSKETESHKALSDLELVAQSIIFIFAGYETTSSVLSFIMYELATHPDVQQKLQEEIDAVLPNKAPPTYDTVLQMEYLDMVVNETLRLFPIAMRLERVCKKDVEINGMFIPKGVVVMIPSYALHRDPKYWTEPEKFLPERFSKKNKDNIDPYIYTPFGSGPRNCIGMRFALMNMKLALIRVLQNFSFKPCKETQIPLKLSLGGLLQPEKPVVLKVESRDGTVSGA

[6] = Metabolic stability in human liver microsomes assessed as parent compound remaining incubated for 10 mins; type: ADME; details: read-out: Stability

SMILES	EC50 [1] [nM]	EC50 [2] [nM]	remaining at 10 min [3] [%]	remaining at 1 h [4] [%]	IC50 [5] [µM]	remaining at 10 min [6] [%]
CCn1c(CCC(=O)Nc2cc(C)cc(C)c2)nnc1CCC1CCCCC1	3100	2900	–	–	–	–
Cc1ccc(NC(=O)CCc2nnc(CCC3CCCCC3)n2C2CC2(F)F)c(C)c1 (stereo not given)	500	920	75	59	–	–
Cc1ccc(NC(=O)CCc2nnc(CCC3CCCCC3)n2C2CCC2)c(C)c1	1800	9500	49	27	–	–
Cc1ccc(NC(=O)CCc2nnc(-c3ccc(CC(C)C)cc3)n2C2CC2)c(C)c1	120	1800	84	55	–	–
Cc1ccc(NC(=O)[C@H]2C[C@@H](O)C[C@@H]2c2nnc([C@H]3C[C@@H](CC(C)C)C3)n2C2CC2)c(C)c1	38	98	87	76	3	–
CCn1c(CCC(=O)Nc2ccc(C)cc2C)nnc1CCC1CCCCC1	600	900	36	0	–	36
Cc1ccc(NC(=O)CCc2nnc([C@H]3C[C@@H](CC(C)C)C3)n2C2CC2)c(C)c1	35	140	70	39	5	–
Cc1ccc(NC(=O)CCc2nnc(CCCC(C)(C)C)n2C2CC2)c(C)c1	1300	2800	71	51	–	–
CCn1c(CCC(=O)Nc2cccc3ccccc23)nnc1CC1CCCCC1	2600	14000	–	–	–	–

Now from value to compound:

EC50 [1] [nM]	EC50 [2] [nM]	remaining at 10 min [3] [%]	remaining at 1 h [4] [%]	IC50 [5] [µM]	remaining at 10 min [6] [%]	SMILES
1400	13000	–	–	–	–	CCn1c(CCC(=O)Nc2cccc3ccccc23)nnc1CCC(C)C
630	2500	–	–	–	–	CCn1c(CCC(=O)Nc2cccc3ccccc23)nnc1CCc1ccccc1
> 20000	> 20000	–	–	–	–	CCn1c(OCC(=O)Nc2cccc3ccccc23)nnc1C1Cc2ccccc2C1
> 20000	> 20000	–	–	–	–	CCn1c(C(O)CC(=O)Nc2cccc3ccccc23)nnc1C1Cc2ccccc2C1 (racemic)
1100	1700	–	–	–	–	CCn1c(C(C)CC(=O)Nc2cccc3ccccc23)nnc1C1Cc2ccccc2C1 (racemic)
